pIC50: −log10 of the molar value. “And” between values parts separate entries of the source, which are not always exact repeats. Equal values may be shown once. Read-outs that look alike come from different tables or passages of the source.
How the values were obtained:
nNav1.5 mRNA = test: Real-time RT-PCR of nNav1.5 mRNA levels in SW620 cells; type: cell-based, human; settings: for decrease in nNav1.5 mRNA levels in comparison to c-siRNA: 40 nM siRNA, 90 h after transfection
Procedure: Steps for polymerase chain reactions (PCRs) were as described before (Fraser et al., 2005). Conventional PCRs were performed using HotStarTaq Plus technology (Qiagen Ltd, Manchester, UK) in a Primus PCR machine (MWG-Biotech, Eurofins Genomics, Ebersberg, Germany). Quantitative real-time PCRs were carried out utilising SYBR Green technology (Qiagen) and a DNA Engine Opticon 2 system (MJ Research, Bio-Rad Laboratories Ltd, Hamel Hempstead, UK). Duplicate reactions on each sample were carried out simultaneously for target and reference genes. Control PCRs were carried out routinely by including non-target (-RT) reactions and monitoring melting curves. The primer pairs used were as follows:
The mRNA levels were quantified using the comparative 2^−ΔΔC(t) method (Livak and Schmittgen, 2001).
(§1) Lipofectamine 2000 reagent (Invitrogen) was used as the transfection agent and the protocol was applied according to the manufacturer's instructions. […] Electrophysiological recordings of siRNA-treated cells were also performed in parallel at given time points and in random order. For these treatments, recordings were made from 19-37 cells from ≥4 different transfections with matching controls.

SW620 cells [1] = test: Cell viability (trypan blue exclusion) and proliferation (MTT); type: cell-based, human
Procedure: Cellular viability (toxicity) and proliferation were quantified as described previously (Fraser et al., 1999, 2003b; Grimes et al., 1995). Briefly, cells were seeded into 35 mm plates at 3.5×10^4/plate (for toxicity) or 24-well plates at 2× 10^4/well (for proliferation) and allowed to settle overnight. The cells were incubated under control conditions or treated with the drug, with a change of medium every 24 h. Cell viability was determined by trypan blue exclusion assay. Proliferation was determined by the colorimetric 3-(4,5-dimethylthiazol-2-yl)-2,5-diphenyltetrazolium bromide (MTT) assay. A ‘standard curve’ was constructed showing linearity over the experimental range. Each biological repeat (treatment and control) was performed in triplicate.

[2] = tested on: Nav1.5 splice variant (neonatal and adult); settings: cited from earlier work
SW620 cells [3] = test: Matrigel invasion assay; type: cell-based, human; settings: for reduction in number of invaded cells compared to c-siRNA: 40 nM siRNA, invasion over 48 h
Procedure: For hypoxia, cells were maintained as above but in 1% O2 for up to 120 h in a dedicated incubator (Micro Galaxy, RS Biotech Laboratory Equipment Ltd, Irvine, UK).
as §1
Thus, (i) insert filters (with 8 μm pores) were coated with 50 µl of 0.21 mg/ml Matrigel (BD Biosciences, Bedford, MA, USA); (ii) the chemotactic gradient was 0.1-10% FBS; and (iii) the cells were serum-starved for 24 hours and (iv) 10^5 cells were seeded onto each filter. After 48 hours, the insert was swabbed and then stained with crystal violet. The invaded cells in 12 non-overlapping fields of view were counted under ×400 magnification. […] Each treatment condition was tested 5-8 times.

nNav1.5 protein = test: Western blot of nNav1.5 protein expression (NESO-pAb); type: cell-based, human
Procedure: Cells were washed with PBS containing 0.5 mM NaF, 0.1 mM Na3 VO4 (Sigma-Aldrich) and lysed in RIPA buffer (0.5M Tris-HCl, pH 7.4, 1.5M NaCl, 2.5% deoxycholic acid, 10% NP-40, 10 mM EDTA) (Merck-Millipore Ltd, Watford, UK) supplemented with an EDTA-free protease inhibitor cocktail (Roche Products Ltd, Welwyn Garden City, UK). Then, cells were vortexed for 30 mins at 4° C. The lysate was centrifuged (15,000 g) at 4° C. and supernatant collected for measurement of the protein concentration by a standard Bradford assay (Bio-Rad protein assay, Bio-Rad). After 15 minutes at 70° C. in SDS loading buffer (62.5 mM Tris-HCl, 20% glycerol, 2% SDS, 100 mM DTT, 0.0025% bromphenol blue, 10% B-mercaptoethanol; pH 6.8), 50 μg of protein per lane was separated by 7.5% SDS-polyacrylamide gel electrophoresis and electroblotted onto 0.45 μm nitrocellulose membrane (Thermo Scientific). Equal protein loading was controlled by Ponceau S staining (Sigma-Aldrich). Membranes were ‘blocked’ with 5% bovine serum albumin (BSA) in TBS+0.1% Tween-20 for 1 hour and probed for 20 hours with the following primary antibodies (diluted in TBS+0.1% Tween 20+1% BSA): i) NESO-pAb antibody for nNav1.5 (1 μl/ml); and (ii) anti-actinin antibody (1 μl/ml) as loading control (Sigma-Aldrich). […]

[4] = target: persistent current, INaP, of VGSC, especially Nav1.5 (Canis lupus familiaris, UniProt Q865W3); settings: Antzelevitch et al., 2004; read-out: IC50 for block of hypoxia-induced persistent current INaP; cited from earlier work
persistent current, INaP, of VGSC, especially Nav1.5, sequence (Q865W3 1-2013): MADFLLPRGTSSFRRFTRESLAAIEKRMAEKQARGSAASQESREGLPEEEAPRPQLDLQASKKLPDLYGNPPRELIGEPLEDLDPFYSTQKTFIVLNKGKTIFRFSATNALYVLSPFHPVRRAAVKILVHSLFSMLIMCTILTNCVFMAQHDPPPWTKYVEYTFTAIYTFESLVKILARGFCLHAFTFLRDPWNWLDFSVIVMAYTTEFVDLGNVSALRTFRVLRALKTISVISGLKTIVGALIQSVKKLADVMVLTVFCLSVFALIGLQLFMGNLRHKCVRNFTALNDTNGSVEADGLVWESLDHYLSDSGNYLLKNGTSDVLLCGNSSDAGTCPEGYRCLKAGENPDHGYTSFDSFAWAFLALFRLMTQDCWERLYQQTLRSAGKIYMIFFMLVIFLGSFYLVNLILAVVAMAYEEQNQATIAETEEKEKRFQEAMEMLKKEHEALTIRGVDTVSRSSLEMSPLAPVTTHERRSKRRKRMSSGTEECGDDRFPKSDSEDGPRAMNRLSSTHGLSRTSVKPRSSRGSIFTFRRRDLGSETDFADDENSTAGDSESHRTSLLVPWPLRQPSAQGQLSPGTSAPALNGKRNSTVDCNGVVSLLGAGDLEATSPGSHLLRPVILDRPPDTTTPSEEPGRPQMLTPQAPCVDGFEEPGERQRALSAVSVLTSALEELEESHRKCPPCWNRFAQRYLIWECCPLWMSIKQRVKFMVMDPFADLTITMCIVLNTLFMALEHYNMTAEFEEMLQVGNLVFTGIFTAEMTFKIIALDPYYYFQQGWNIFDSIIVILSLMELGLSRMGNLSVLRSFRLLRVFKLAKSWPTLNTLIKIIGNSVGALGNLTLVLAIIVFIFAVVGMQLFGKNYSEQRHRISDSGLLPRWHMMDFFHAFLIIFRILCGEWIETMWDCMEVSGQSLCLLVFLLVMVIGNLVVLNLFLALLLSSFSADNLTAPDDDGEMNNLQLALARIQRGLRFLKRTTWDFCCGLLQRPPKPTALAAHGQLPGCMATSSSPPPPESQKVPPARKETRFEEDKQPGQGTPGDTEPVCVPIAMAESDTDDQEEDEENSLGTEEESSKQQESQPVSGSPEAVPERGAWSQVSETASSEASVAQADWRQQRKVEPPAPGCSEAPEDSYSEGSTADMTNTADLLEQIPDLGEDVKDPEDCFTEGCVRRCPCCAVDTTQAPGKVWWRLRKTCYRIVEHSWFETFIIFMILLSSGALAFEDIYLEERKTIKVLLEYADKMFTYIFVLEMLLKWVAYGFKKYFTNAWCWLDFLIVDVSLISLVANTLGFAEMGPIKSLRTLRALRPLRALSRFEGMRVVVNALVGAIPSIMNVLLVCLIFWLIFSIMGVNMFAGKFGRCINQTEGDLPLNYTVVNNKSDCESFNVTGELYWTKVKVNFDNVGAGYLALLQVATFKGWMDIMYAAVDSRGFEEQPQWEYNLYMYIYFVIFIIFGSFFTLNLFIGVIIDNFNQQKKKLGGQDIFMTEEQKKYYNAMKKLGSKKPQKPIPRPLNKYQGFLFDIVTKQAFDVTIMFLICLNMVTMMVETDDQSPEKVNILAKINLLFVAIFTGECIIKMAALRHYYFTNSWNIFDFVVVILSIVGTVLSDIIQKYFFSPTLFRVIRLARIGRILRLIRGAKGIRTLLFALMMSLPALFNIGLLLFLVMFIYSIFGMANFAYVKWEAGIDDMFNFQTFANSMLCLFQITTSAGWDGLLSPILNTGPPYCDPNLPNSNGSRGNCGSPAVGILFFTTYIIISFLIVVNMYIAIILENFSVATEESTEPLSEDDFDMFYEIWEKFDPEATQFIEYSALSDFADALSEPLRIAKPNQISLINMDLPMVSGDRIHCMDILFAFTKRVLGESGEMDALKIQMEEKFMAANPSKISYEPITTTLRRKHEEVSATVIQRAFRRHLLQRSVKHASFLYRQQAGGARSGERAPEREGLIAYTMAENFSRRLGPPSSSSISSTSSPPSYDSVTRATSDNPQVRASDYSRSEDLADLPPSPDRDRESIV

[5] = tested on: VGSC currents (nNav1.5 / aNav1.5) in SW620 cells; test: Whole-cell patch-clamp recording of VGSC currents in siRNA-transfected SW620 cells; type: cell-based, human; settings: for proportion of cells demonstrating VGSC currents / peak VGSC current density: SW620 cells after siRNA transfection; for peak VGSC current density: median (25%-75% interquartile range); for Activation V1/2 (half-activation voltage) / Activation k (activation slope factor) / Inactivation V1/2 (half-inactivation voltage) / Inactivation k (inactivation slope factor) / Tinactivation (inactivation time constant) / Tpeak (time to peak): SW620 cells, 40 nM siRNA, 96 h transfection, 24 h serum starvation, mean ± SEM
Text: Details of the patch pipettes, solutions, and the whole-cell recording protocols were as described previously (e.g. Laniado et al., 1997; 2001; Fraser et al., 2003a; Grimes et al, 1995). In brief, patch pipettes (tip resistances, ˜5 M Ω) were filled with a solution designed to block the outward K^+ currents; the composition was as follows (in mM): NaCl 5, CsCl 145, MgCl2 2, CaCl2) 1, HEPES 10 and EGTA 11, adjusted to pH 7.4 with 1 M CsOH. The estimated intracellular free Ca^2+ concentration was ˜15 nM (Laniado et al., 2001). Whole-cell membrane currents were recorded from cells that appeared ‘isolated’ in culture, using an Axopatch 200B amplifier (Axon Instruments, CA, USA). Analogue signals were filtered at 10 kHz using a low-pass Bessel filter, and series resistance errors were compensated by >90%. Electrophysiological signals were sampled at 50 kHz and digitised using an interface (Digidata 1200). Data acquisition and analysis of whole-cell currents were performed using pClamp software (Axon Instruments). A holding potential of −100 mV was applied, unless indicated otherwise. Standard voltage-clamp protocols were used to study the electrophysiological properties of the VGSC currents. There was a noticeable decrease in current amplitude with time in culture, also apparent in immunocytochemistry (FIG. 7). All routine recordings were done 24 hours after (re) plating and 24 hours of serum starvation (to match the condition of the invasion assays).
Conductance-voltage relationships were determined using the equation:
[formula] • where G is the conductance; I the current amplitude; V the test pulse; and Vrev the theoretical Na^+ reversal potential. Normalized curves for voltage dependence of steady-state activation and inactivation were fitted to a Boltzmann function of the form:
[formula] • where Gmax is the maximal conductance; Vm is the membrane voltage; V1/2 is the voltage at which the current is half activated/inactivated, and k is the slope factor of voltage sensitivity. For the time course of recovery from inactivation, the data was plotted as a function of recovery time and fitted to the following single exponential equation:
[formula] • where I is normalized current, t is time, t is the time constant, A is the amplitude of the normalized current, and C is the asymptote. More details can be found in Onkal et al. (2008).
as §1

In the case of `NC1=N[C@H](O)[C@H]2[C@H]3O[C@]4(O)O[C@@H]([C@@H](O)[C@@]2(N1)[C@@H]4O)[C@]3(O)CO` [TTX, Tetrodotoxin], the “effect on hypoxia-induced increase of nNav1.5 mRNA expression” value (nNav1.5 mRNA) was “blocked this increase”, the “effect on nNav1.5 mRNA expression” value (nNav1.5 mRNA) was “Lack of effect” and the effect on proliferation (SW620 cells [1]) was “not affected”. For the same molecule, the “block of currents generated by either Nav1.5 splice variant” value [2] was greater than 80%, the “effect of TTX on invasiveness” value (SW620 cells [3]) was “no effect” and the effect on invasiveness (SW620 cells [3]) was “no effect”. The “reduction of invasiveness by TTX” value (SW620 cells [3]) was 32% and 34%, the “reduction of invasiveness cf. hypoxia control” value (SW620 cells [3]) was 45% and the inhibition of invasiveness (SW620 cells [3]; 20 µM) was 37%. The “effect on nNav1.5 protein expression” value (nNav1.5 protein) was “no effect”.
For `COc1ccccc1OCC(O)CN1CCN(CC(=O)Nc2c(C)cccc2C)CC1` (stereo not drawn) [ranolazine], the “effect on hypoxia-induced increase of nNav1.5 mRNA expression” value (nNav1.5 mRNA; 5 μM, hypoxia 1% O2 48 h, SW620 cells) was “blocked this increase”, the “effect on nNav1.5 mRNA expression” value (nNav1.5 mRNA; 5 μM, normoxia, SW620 cells) was “Lack of effect” and the effect on proliferation (SW620 cells [1]; up to 10 µM, normoxia or hypoxia (not shown)) was “not affected”. The pIC50 [4] was 5.23, the “reduction in invasion cf. hypoxia control” value (SW620 cells [3]; 5 μM, hypoxia (1% O2, 72 h), SW620 cells) was 37% and the reduction in invasion (SW620 cells [3]; 5 μM, normoxia, SW620 cells) was 9%. The “inhibition of invasion, dose dependence” value (SW620 cells [3]; 1-10 μM, hypoxia, control/c-siRNA-treated SW620 cells) was “dose-dependent manner with two-fold difference over 1-10 μM”, the “effect on invasiveness in cells pre-treated with n3-siRNA” value (SW620 cells [3]; up to 10 μM, hypoxia, n3-siRNA pre-treated SW620 cells) was “no additional effect” and the “effect on nNav1.5 protein expression” value (nNav1.5 protein; 5 μM, normoxia and hypoxia, SW620 cells) was “no effect”.
In the case of “AGGUAGUGUAAUCGCCUUG (listed as RNA, chemistry not given here) [c-siRNA, non-targeting control siRNA supplied by Eurofins]”, the effect on invasiveness (SW620 cells [3]; SW620 cells, normoxia or hypoxia (1% O2, 72 h)) was “no effect”.
For CUAGGCAAUUUGUCGGCUC [n1-siRNA], the “proportion of cells demonstrating VGSC currents” value (“proportion” for short) [5] was 42%, the “peak VGSC current density” value [5] was 0.0 (0-3.1) pA/pF and the “decrease in nNav1.5 mRNA levels in comparison to c-siRNA” value (shortened to “decrease in nNav1.5 mRNA levels”) (nNav1.5 mRNA; SW620 cells) was 50±12%. The “reduction in number of invaded cells compared to c-siRNA” value (shortened to “reduction in number of invaded cells”) (SW620 cells [3]; SW620 cells, normoxia) was 64%.
With GAGUCCUGAGAGCUCUAAA [n3-siRNA] the “proportion” value [5] was 51%, the “peak VGSC current density” value [5] was 1.0 (0-6.8) pA/pF and the “Activation V1/2 (half-activation voltage)” value [5] was −24.7 ± 2.0 mV. For the same molecule, the “Activation k (activation slope factor)” value [5] was 6.1 ± 0.3 mV, the “Inactivation V1/2 (half-inactivation voltage)” value [5] was −86.5 ± 1.2 mV and the “Inactivation k (inactivation slope factor)” value [5] was −5.0 ± 0.4 mV. The “Tinactivation (inactivation time constant)” value [5] was 0.80 ± 0.10 ms, the “Tpeak (time to peak)” value [5] was 0.66 ± 0.04 ms and the “decrease in nNav1.5 mRNA levels” value (nNav1.5 mRNA; SW620 cells) was 32±10%. The “reduction in number of invaded cells” value (SW620 cells [3]; SW620 cells, normoxia) was 73% and the “hypoxia-induced increase in invasiveness” value (SW620 cells [3]; SW620 cells, hypoxia 1% O2 72 h, siRNA-treated) was “completely suppressed”.
In the case of “GUCUCAGCCUUACGCACCU (listed as RNA, chemistry not given here) [a-siRNA, siRNA targeting 'adult' Nav1.5 (aNav1.5)]”, the “proportion” value [5] was 58%, the “peak VGSC current density” value [5] was 3.5 (0-7.5) pA/pF and the “Activation V1/2 (half-activation voltage)” value [5] was −28.1 ± 1.7 mV. For the same molecule, the “Activation k (activation slope factor)” value [5] was 6.7 ± 0.6 mV, the “Inactivation V1/2 (half-inactivation voltage)” value [5] was −95.6 ± 2.1 mV and the “Inactivation k (inactivation slope factor)” value [5] was −6.7 ± 0.7 mV. The “Tinactivation (inactivation time constant)” value [5] was 1.35 ± 0.19 ms, the “Tpeak (time to peak)” value [5] was 0.90 ± 0.06 ms and the “reduction in number of invaded cells” value (SW620 cells [3]; SW620 cells, normoxia) was 17%.
In the case of UAUCAUGGCGUAUGUAUCA [n2-siRNA], the “proportion” value [5] was 33%, the “peak VGSC current density” value [5] was 0.0 (0-2.4) pA/pF and the “decrease in nNav1.5 mRNA levels” value (nNav1.5 mRNA; SW620 cells) was 85±10%. The “reduction in number of invaded cells” value (SW620 cells [3]; SW620 cells, normoxia) was 45%.

Source: patent US20250092399A1, “GENE THERAPY TARGETING THE NEONATAL FORM OF NAV1.5 FOR TREATING CANCER” (Celex Oncology Innovations Limited, priority 2018, published 2025)
